Measured values from ChEMBL document CHEMBL3612053, “Discovery and SAR study of 3-(tert-butyl)-4-hydroxyphenyl benzoate and benzamide derivatives as novel farnesoid X receptor (FXR) antagonists” (Bioorg Med Chem, 2015).

Columns and labels:
Bile acid receptor = biological target: T1, Bile acid receptor (Homo sapiens, UniProt Q96RI1); experiment: Antagonist activity at GST-tagged FXR LBD (unknown origin) assessed as inhibition of CDCA-induced Bio-SRC-1 recruitment after 30 mins by HTRF assay
T1 sequence (Q96RI1 whole entry): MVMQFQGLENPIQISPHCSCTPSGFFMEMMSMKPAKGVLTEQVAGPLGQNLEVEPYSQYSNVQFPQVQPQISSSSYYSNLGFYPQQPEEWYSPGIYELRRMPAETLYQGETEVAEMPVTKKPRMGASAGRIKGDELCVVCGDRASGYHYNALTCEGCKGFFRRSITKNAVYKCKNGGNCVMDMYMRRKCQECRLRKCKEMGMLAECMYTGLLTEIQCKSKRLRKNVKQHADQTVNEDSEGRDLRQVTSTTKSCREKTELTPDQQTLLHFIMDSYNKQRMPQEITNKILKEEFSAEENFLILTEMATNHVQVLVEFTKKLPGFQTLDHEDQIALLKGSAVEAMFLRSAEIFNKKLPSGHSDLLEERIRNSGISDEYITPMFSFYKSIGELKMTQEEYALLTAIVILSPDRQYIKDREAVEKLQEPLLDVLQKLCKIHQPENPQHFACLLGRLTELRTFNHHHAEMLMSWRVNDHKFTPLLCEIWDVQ

[1] = Half life in serum (unknown origin); type: ADME, cell-free
[2] = biological target: T2, Bile acid receptor (Homo sapiens) (UniProt Q96RI1); experiment: Potency index, ratio of guggulsterone IC50 to compound IC50 for GST-tagged FXR LBD (unknown origin)
T2 sequence (whole entry): T1 sequence (Q96RI1 whole entry)

CC(C)(C)c1cc(OC(=O)c2ccc([N+](=O)[O-])cc2)ccc1O
IC50 (Bile acid receptor): 12.7 µM | half-life [1]: < 0.25 h

CCc1cc(NC(=O)c2ccc(Cl)cc2Cl)ccc1O
IC50 (Bile acid receptor): > 100 µM | half-life [1]: > 1 h

CC(C)(C)c1cc(NC(=O)c2ccc(Cl)cc2Cl)cc(C(C)(C)C)c1O
IC50 (Bile acid receptor): > 100 µM | half-life [1]: > 1 h

CC(C)(C)c1cc(NC(=O)c2c(Cl)cc(NC3CCCCC3)cc2Cl)ccc1O
IC50 (Bile acid receptor): 2.5 µM | half-life [1]: > 1 h

CC(C)(C)c1cc(NC(=O)c2c(Cl)cc(NCc3cccs3)cc2Cl)ccc1O
IC50 (Bile acid receptor): 8.6 µM | half-life [1]: > 1 h

Cc1ccc(C(=O)Oc2ccc(O)c(C(C)(C)C)c2)cc1
IC50 (Bile acid receptor): > 100 µM | half-life [1]: < 0.25 h

C=CCOc1ccc(NC(=O)c2ccc(Cl)cc2Cl)cc1C(C)(C)C
IC50 (Bile acid receptor): > 100 µM | half-life [1]: > 1 h

CN(C)c1cc(Cl)c(C(=O)N(c2ccc(O)c(C(C)(C)C)c2)C2CCCCC2)c(Cl)c1
IC50 (Bile acid receptor): > 100 µM | half-life [1]: > 1 h

CC(C)(C)c1cc(OC(=O)c2ccccc2)ccc1O
IC50 (Bile acid receptor): > 100 µM | half-life [1]: < 0.25 h

CC(C)(C)c1cc(OC(=O)c2ccc(Cl)cc2)ccc1O
IC50 (Bile acid receptor): > 100 µM | half-life [1]: < 0.25 h

CC(C)(C)c1cc(NC(=O)c2c(Cl)cc(N3CCNCC3)cc2Cl)ccc1O
IC50 (Bile acid receptor): > 100 µM | half-life [1]: > 1 h

CC(C)(C)c1cc(NC(=O)c2c(Cl)cc(NCc3cccnc3)cc2Cl)ccc1O
IC50 (Bile acid receptor): 3.6 µM | half-life [1]: > 1 h

CN(c1cc(Cl)c(C(=O)Nc2ccc(O)c(C(C)(C)C)c2)c(Cl)c1)C1CCCCC1
IC50 (Bile acid receptor): > 100 µM | half-life [1]: > 1 h

CC(C)(C)c1cc(NC(=O)c2c(Cl)cc(NC3CCCC3)cc2Cl)ccc1O
IC50 (Bile acid receptor): 5 µM | half-life [1]: > 1 h

CC(C)(C)c1cc(OC(=O)Cc2ccccc2)ccc1O
IC50 (Bile acid receptor): > 100 µM | half-life [1]: < 0.25 h

CC(C)(C)c1cc(NC(=O)c2c(Cl)cc(NCc3ccncc3)cc2Cl)ccc1O
IC50 (Bile acid receptor): 9.8 µM | half-life [1]: > 1 h

CC(C)(C)c1cc(NC(=O)c2c(Cl)cc(N)cc2Cl)ccc1O
IC50 (Bile acid receptor): 5.2 µM | half-life [1]: > 1 h

CNc1cc(Cl)c(C(=O)Nc2ccc(O)c(C(C)(C)C)c2)c(Cl)c1
IC50 (Bile acid receptor): 13.9 µM | half-life [1]: > 1 h

CC(C)(C)c1cc(OC(=O)c2c(Cl)cc([N+](=O)[O-])cc2Cl)ccc1O
IC50 (Bile acid receptor): 5.9 µM | half-life [1]: < 0.25 h

COc1ccccc1C(=O)Oc1ccc(O)c(C(C)(C)C)c1
IC50 (Bile acid receptor): > 100 µM | half-life [1]: < 0.25 h

CCNc1cc(Cl)c(C(=O)Nc2ccc(O)c(C(C)(C)C)c2)c(Cl)c1
IC50 (Bile acid receptor): 28.7 µM | half-life [1]: > 1 h

CC(C)(C)c1cc(NC(=O)c2c(Cl)cc(N3CCCCC3)cc2Cl)ccc1O
IC50 (Bile acid receptor): > 100 µM | half-life [1]: > 1 h

CN(C)c1cc(Cl)c(C(=O)Nc2ccc(O)c(C(C)(C)C)c2)c(Cl)c1
IC50 (Bile acid receptor): 1.4 µM | half-life [1]: > 1 h

COc1ccc(NC(=O)c2ccc(Cl)cc2Cl)cc1C(C)(C)C
IC50 (Bile acid receptor): > 100 µM | half-life [1]: > 1 h

CC(C)(C)c1cc(OC(=O)c2ccc([N+](=O)[O-])cc2Cl)ccc1O
IC50 (Bile acid receptor): 8.8 µM | half-life [1]: < 0.25 h

CC(C)(C)c1cc(OC(=O)c2ccc(N)cc2)ccc1O
IC50 (Bile acid receptor): 34.2 µM | half-life [1]: < 0.25 h

CC(C)c1cc(NC(=O)c2ccc(Cl)cc2Cl)ccc1O
IC50 (Bile acid receptor): > 100 µM | half-life [1]: > 1 h

CC(C)(C)c1cc(NC(=O)c2ccc(Cl)cc2Cl)ccc1O
IC50 (Bile acid receptor): 13.6 µM | half-life [1]: > 1 h

CC(=O)Oc1ccc(NC(=O)c2ccc(Cl)cc2Cl)cc1C(C)(C)C
IC50 (Bile acid receptor): 15.5 µM | half-life [1]: > 1 h

CC(C)(C)c1cc(OC(=O)c2ccc(Cl)cc2Cl)ccc1O
IC50 (Bile acid receptor): 10.2 µM | half-life [1]: 0.167 h

CN(C)c1cc(Cl)c(C(=O)N(C)c2ccc(O)c(C(C)(C)C)c2)c(Cl)c1
IC50 (Bile acid receptor): 3.9 µM | half-life [1]: > 1 h

CC(C)(C)c1cc(OC(=O)c2c(Cl)cc(N)cc2Cl)ccc1O
IC50 (Bile acid receptor): 0.6 µM | Ratio IC50 [2]: 100 | half-life [1]: < 0.25 h

CC(C)(C)c1cc(OC(=O)c2ccc(N)cc2Cl)ccc1O
IC50 (Bile acid receptor): 7.2 µM | half-life [1]: < 0.25 h

CN(C)c1cc(Cl)c(C(=O)N(Cc2cccnc2)c2ccc(O)c(C(C)(C)C)c2)c(Cl)c1
IC50 (Bile acid receptor): 6.3 µM | half-life [1]: > 1 h

CN(C)c1cc(Cl)c(C(=O)N(CC2CCCCC2)c2ccc(O)c(C(C)(C)C)c2)c(Cl)c1
IC50 (Bile acid receptor): > 100 µM | half-life [1]: > 1 h

CC(C)(C)c1cc(OC(=O)/C=C/c2ccccc2)ccc1O
IC50 (Bile acid receptor): > 100 µM | half-life [1]: < 0.25 h

Cc1cc(NC(=O)c2ccc(Cl)cc2Cl)ccc1O
IC50 (Bile acid receptor): > 100 µM | half-life [1]: > 1 h

CC(C)(C)c1cc(OC(=O)c2ccco2)ccc1O
IC50 (Bile acid receptor): > 100 µM | half-life [1]: < 0.25 h

Cc1ccccc1C(=O)Oc1ccc(O)c(C(C)(C)C)c1
IC50 (Bile acid receptor): > 100 µM | half-life [1]: < 0.25 h
